These results are taken from US12029738B2, “Antiproliferative compounds and methods of use thereof” (Celgene Corporation, priority 2017, dated 2024).

Assay [1] has as its system NCI-H929. Put plainly: Cell proliferation assay (CTG, 120 h). Format: cell-based. The settings on record: Homo sapiens. The procedure:
(§1) Cell Culture Materials: Human multiple myeloma cell lines were purchased from the vendors and cultured at 37° C. with 5% CO2 in the media as indicated in Table 1. Lenalidomide and pomalidomide resistant cell lines were obtained by methods as generally described previously (Lopez-Girona et al Leukemia 2012; 26(11): 2335). All cell lines were kept in log phase, and cell density and viability were monitored by trypan blue exclusion using the Vi-cell XR cell viability analyzer (Beckman Coulter, Brea, CA).
(§2) Preparation of Solutions of Test Article: Compounds were plated into black 384-well plates (Corning Inc.) to a final DMSO volume of 0.1% assuming a maximal volume of 50 μL. A 10-point dose response starting at 10 μM with a 1:3 dilution was printed in duplicate by acoustic dispense using the EDC ATS-100 platform. Alternatively, the 10-point dose response starting at 10 μM with a 1:10 dilution, or starting at 100 nM with a 1:3 dilutions were used.
(§3) Cell Proliferation Assays: The effect of compounds on the proliferation/viability of the hematological cell lines (Table 1), was assessed after 120 h incubation using CTG (Promega), according to manufacturer's instructions. Hematological cell lines were dispensed into compound plates by a Multidrop Combi Reagent Dispenser (Thermo Scientific, Waltham, MA) at a concentration of 0.1×10^6 cells per mL in a 50 μL total volume. At 120 h, 25 μL per well of CTG was dispensed by a Multidrop Combi Reagent Dispenser and adenosine triphosphate (ATP) release by viable cells was measured as relative luminescence units after 30 minutes using the Envision platform.
(§4) Results. […] The MM cell lines selected for this study were lines sensitive and resistant to lenalidomide and/or pomalidomide (Table 1), two agents used in the clinic to treat myeloma patients. Proliferation was assessed using the CellTitre-Glo© assay. Results for cultures incubated with the compounds were normalized to results for control cultures for each cell line. The IC50 for inhibition of cell growth by the compounds was determined for each cell line using ActivityBase software.

In assay [2] the test system is OPM2-P10 (pomalidomide-resistant). Put plainly: Cell proliferation assay (CTG, 120 h). Format: cell-based. The settings on record: Homo sapiens, read-out: OPM-2.P10 120 h IC50. The procedure:
as §1, §2, §3, §4

Assay [3] concerns OPM2. Put plainly: Cell proliferation assay (CTG, 120 h). As to conditions: Homo sapiens, OPM-2. Format: cell-based. The procedure: as §1, §2, §3, §4
Another assay has as its system ANBL-6. Put plainly: Flow cytometry proliferation/apoptosis assay (120 h). It counts as cell-based, human. As to conditions: for IC50: Homo sapiens, read-out: Antiproliferative Activity (Flow Cytometry) IC50; for induced apoptosis AUC (area under the dose response curve): scale 0-10000. The procedure:
(§5) Methods. […] Twenty MM cell lines (Table 7 and 8) (including the plasma cell leukemia (PCL) cell lines L363, JJN-3, ARH-77, and SKMM-2) were treated in duplicate with escalating concentrations of Compound 2 or pomalidomide, ranging from 0.015 to 100 nM. Using 5 mM stocks, compounds were pre-spotted into the appropriate wells of 96-well plates using a Hewlett-Packard D300 Digital Dispenser. Cells were added to 96-well plates using a Multidrop Combi Reagent Dispenser. After 5 days of treatment, flow cytometric analysis was used to determine the number of cells that were alive, dead, or apoptotic. After 5 days of treatment, cells were incubated with annexin V to stain exposed phosphatidylserine, an apoptotic cell-surface marker, and the vital dye 7-AAD, which is excluded from cells with intact cell membranes, and analyzed by flow cytometry (Attune®, Thermo Fisher). Analysis was then performed to determine the number of live cells (annexin V and 7-AAD double negative staining cells) and the percentage of apoptotic cells (annexin V positive cells) for each condition, relative to the DMSO control treated, was calculated. All described values were normalized to DMSO-only treated cells. All proliferation and apoptosis induction curves were processed and graphed as percent of control using XLFit (IDBS, Alameda, CA) and GraphPad Prism 7.03 (GraphPad Software, La Jolla, CA). The live cell count for every concentration was normalized to the DMSO control (considered as 100%) in Microsoft Excel to generate the proliferation curves. […] Similarly, for apoptosis analysis, the percentage of drug-induced apoptosis was calculated for all doses by combining both “early” (annexin V positive and 7-AAD negative) and “late” apoptosis (annexin V and 7-AAD positive) values and subtracting background values (cell treated with vehicle control DMSO). The AUC values for apoptosis curves were calculated by performing area under curve analysis on GraphPad Prism 7.03. The area under the dose-response curve (AUC) was calculated since it integrates potency and efficacy of the drugs to represent apoptosis into a single parameter. The IC50 values for Compound 2 and pomalidomide in the flow cytometry assays are presented Table 9.
(§6) The apoptosis induction effect of Compound 2 was assessed using flow cytometry after 120 h of treatment and compared with pomalidomide treatment. […] Each data point represents 2 independent experiments with at least two samples in each experiment. (Table 10).

The test system of a further assay is DF15. Described as above. It counts as cell-based, human. The settings on record: for IC50: Homo sapiens, read-out: Antiproliferative Activity (Flow Cytometry) IC50; for induced apoptosis AUC (area under the dose response curve): scale 0-10000. As for the experimental part:
as §5, §6
A general note: In flow cytometry, cells or beads pass a laser one at a time.

Another assay has as its system KMS-12-PE. Described as above. It counts as cell-based, human. As to conditions: for IC50: Homo sapiens, read-out: Antiproliferative Activity (Flow Cytometry) IC50; for induced apoptosis AUC (area under the dose response curve): scale 0-10000. The procedure: as §5, §6
The subject of another assay is LP-1. The description is as above. Format: cell-based, human. The settings on record: for IC50: Homo sapiens, read-out: Antiproliferative Activity (Flow Cytometry) IC50; for induced apoptosis AUC (area under the dose response curve): scale 0-10000. As for the experimental part:
as §5, §6

A further assay relates to MM1-S. The description is as above. As to conditions: for IC50: Homo sapiens, MM1-S, read-out: Antiproliferative Activity (Flow Cytometry) IC50; for induced apoptosis AUC (area under the dose response curve): MM1.S, 10000 = complete induction at all doses, 0 = none. It counts as cell-based, human. As for the experimental part:
as §5, §6

In assay [4] the test system is NCI-H929. The assay is described as above. Format: cell-based, human. As to conditions: for IC50: Homo sapiens, read-out: Antiproliferative Activity (Flow Cytometry) IC50; for induced apoptosis AUC (area under the dose response curve): scale 0-10000. The procedure:
as §5, §6

Assay [5] relates to OPM2. The description is as above. It counts as cell-based, human. As to conditions: for IC50: Homo sapiens, OPM-2, read-out: Antiproliferative Activity (Flow Cytometry) IC50; for induced apoptosis AUC (area under the dose response curve): scale 0-10000. The procedure: as §5, §6
For assay [6], the system named is CD38 expression in MM cell lines. Put plainly: Cell surface CD38 expression in MM cells (72 h pretreatment). Format: cell-based, human. The settings on record: 72 h treatment. As for the experimental part:
FIG. 17. Compound 2 upregulates CD38 expression in MM cell lines. The cell surface expression of CD38 was evaluated in MM cells pretreated with Compound 2 or pomalidomide for 72 h. The dose response effects are shown for OPM-2 and OPM-2.P10 cell lines.
The extent of CD38 expression was greater with Compound 2 and occurred at lower concentrations compared to pomalidomide. MM cells+/−Compound 2 or pomalidomide pretreatment were evaluated in ADCC assays with daratumumab. […] Compound 2 treated cells were also more sensitive to daratumumab-mediated ADCC compared to pomalidomide treated cells. The ability of Compound 2 and pomalidomide to modulate daratumumab-mediated ADCP was also tested.

Usually IC50 stands for the point on the concentration scale where inhibition reaches its midpoint. With `N#Cc1ccc(N2CCN(Cc3ccc(COc4cccc5c4CN(C4CCC(=O)NC4=O)C5=O)cc3)CC2)c(F)c1` (racemic) [Compound 1, 4-(4-(4-(((2-(2,6-dioxopiperidin-3-yl)-1-oxoisoindolin-4-yl)oxy)methyl)benzyl)piperazin-1-yl)-3-fluorobenzonitrile], the 50% inhibitory concentration (IC50) with NCI-H929 [1] was less than 0.5 nM; in assay [2], 19 nM; in the assay on OPM2 [3] it was less than 0.5 nM.
`N#Cc1ccc(N2CCN(Cc3ccc(COc4cccc5c4CN([C@H]4CCC(=O)NC4=O)C5=O)cc3)CC2)c(F)c1` [Compound 2, (S)-4-(4-(4-(((2-(2,6-dioxopiperidin-3-yl)-1-oxoisoindolin-4-yl)oxy)methyl)benzyl)piperazin-1-yl)-3-fluorobenzonitrile]: the IC50 came to 0.07 nM with NCI-H929 [1]; 4.3 nM in assay [2]; 0.07 nM in the assay on OPM2 [3]; 0.06 nM with ANBL-6; 0.05 nM in the assay on DF15; 0.09 nM in the assay with KMS-12-PE. The IC50 came out at 0.14 nM with LP-1, 0.04 nM in the assay with MM1-S, 0.05 nM in the assay with NCI-H929 [4] and 0.05 nM with OPM2 [5]. Besides, the “induced apoptosis AUC (area under the dose response curve)” value (shortened to “induced apoptosis AUC”) came out at 4751 in the assay with ANBL-6; 6002 in the assay on DF15; 2017 in the assay on KMS-12-PE; 630.7 in the assay with LP-1; 5701 in the assay with MM1-S; 6089 in the assay with NCI-H929 [4]. Besides, the “induced apoptosis AUC” value with OPM2 [5] is on record as 5620. The “CD38 expression in MM cells” value in assay [6] is listed as “dose-dependent increase of CD38 expression”.
In the case of `Nc1cccc2c1C(=O)N(C1CCC(=O)NC1=O)C2=O` (stereo not drawn) [Pomalidomide, pomalidomide], the IC50 with ANBL-6 came out at 60.6 nM; with DF15, 41 nM; in the assay on KMS-12-PE, 83.8 nM; in the assay on LP-1, 176 nM; in the assay with MM1-S, 33.7 nM; with NCI-H929 [4], 63.1 nM. The half-maximal inhibitory concentration (IC50) with OPM2 [5] was found to be 69.7 nM. Further, the “induced apoptosis AUC” value in the assay with ANBL-6 was 2580; in the assay on DF15 it was 3707; with KMS-12-PE it was 1069; with LP-1 it was 174; in the assay with MM1-S, 3525; in the assay on NCI-H929 [4] it was 2115. For the same compound, the “induced apoptosis AUC” value in the assay with OPM2 [5] was determined as 3298. The “CD38 expression in MM cells” value in assay [6] is given as “dose-dependent increase of CD38 expression”.
